Data as given in patent US7868135B2, “Compositions of lipopeptide antibiotic derivatives and methods of use thereof” (priority 2003, dated 2011).
Starred links: 1 amine or outer side, 2 acyl side, 3 side chain; linkers in the order of their positions; H or OH if unused. Positions of bridges follow the written chain, without caps; N, C: chain ends. Non-standard residues stand in square brackets, D forms with d. Residues, ends and D or L forms follow the SMILES beside them. ξ: configuration not given here. *: point of attachment. ξAbu(βξ-NH2) = CC(N[*:3])C(N[*:1])C(=O)[*:2]; ξAbu(3ξ-NH-βAla) = CC(NC(=O)CCN)C(N)C(=O)O; X36 = CC(NC(=O)CN(C)C)C(N[*:1])C(=O)[*:2]; Pentadecanoyl = CCCCCCCCCCCCCCC(=O)*; ξAsp(βξ-Me) = CC(C(=O)O)C(N)C(=O)O; Palmitoyl = CCCCCCCCCCCCCCCC(=O)*; X1 = O=C(Cc1ccc(N[*:1])cc1)[*:2]; ξAbu(3ξ-NH2) = CC(N)C(N)C(=O)O; Lauroyl = CCCCCCCCCCCC(=O)*; Decanoyl = CCCCCCCCCC(=O)*; Pip = O=C(O)[CH]1CCCCN1

Tests used:
[1] = test system: Staphylococcus aureus SAU0065 (MRSA); assay: Broad spectrum MIC, Table 17/18 column H; format: cell-based; details: condition H of Table 17, in µg/mL
Description: (§1) The antimicrobial lipopeptide derivatives described herein were tested for antimicrobial activity against Gram-positive bacteria as follows. The minimum inhibitory concentrations (MIC) of the antimicrobial lipopeptide derivatives of the invention were determined using NCCLS guidelines M7-A6 (2003) with a slight modification in that doubling serial dilutions were used to dilute the test compounds. The broth phase microdilution method was used. Isolated colonies of Staphylococcus aureus (MSSA) from an 18-24 hour blood agar plate cultures were used to inoculate cation adjusted Mueller-Hinton broth (CAMHB) supplemented with 0.625 mM calcium. […] A negative control containing media alone and a positive growth control containing bacteria with media alone were also included. MICs were determined after incubating the plates at about 37° C. for 24 hours. […] In Tables 1 to 16, R is the core cyclic peptide of amphomycin or aspartocin, which can be in the form of a β-isomer, an anhydro, a dianhydro, or any combination thereof. […] Furthermore, a person of skill in the art will appreciate that all the pounds, or groups of compounds, derived from the various combinations of and substituents shown in Tables 1 to 16, are disclosed by the present the same extent as if each compound or group of compounds was set forth individually.
(§2) Antimicrobial lipopeptide derivatives of the instant invention were tested for antimicrobial activity against Gram-positive bacteria in a variety of media conditions. The […] (MIC) of the antimicrobial lipopeptide derivatives were determined as described in Example 376. The various media used are described in Table 17.

[2] = test system: Staphylococcus epidermidis SEP0375 (MRSE); assay: Broad spectrum MIC, Table 17/18 column I; format: cell-based; details: condition I of Table 17, in µg/mL
Description: as §1, §2

[3] = test system: Enterococcus faecalis EFS0004 (VSE); assay: Broad spectrum MIC, Table 17/18 B, C, D (CAMHB; + 0.625 mM calcium; + calcium and 30% bovine serum); format: cell-based; details: in µg/mL
Description: as §1, §2

[4] = test system: Staphylococcus aureus SAU0031 (VISA); assay: Broad spectrum MIC, Table 17/18 column G; format: cell-based; details: condition G of Table 17, in µg/mL
Description: as §1, §2

[5] = test system: Streptococcus pneumoniae SPN0032 (PSSP); assay: Broad spectrum MIC, Table 17/18 column L; format: cell-based; details: condition L of Table 17, in µg/mL
Description: as §1, §2

[6] = test system: Staphylococcus aureus SAU0017 (MSSA); assay: Broad spectrum MIC, Table 17/18 columns E, F (+ 0.625 mM calcium; + calcium and 30% bovine serum); format: cell-based; details: in µg/mL
Description: as §1, §2

[7] = test system: Streptococcus pneumoniae SPN0023 (PRSP); assay: Broad spectrum MIC, Table 17/18 column K; format: cell-based; details: condition K of Table 17, in µg/mL
Description: as §1, §2

[8] = test system: Streptococcus pyogenes SPY0001 (PenS); assay: Broad spectrum MIC, Table 17/18 column M; format: cell-based; details: condition M of Table 17, in µg/mL
Description: as §1, §2

[9] = test system: Streptococcus pneumoniae SPN0002 (PISP); assay: Broad spectrum MIC, Table 17/18 column J; format: cell-based; details: condition J of Table 17, in µg/mL
Description: as §1, §2

[10] = test system: Enterococcus faecium EFM0101 (VRE, MDR); assay: Broad spectrum MIC, Table 17/18 column A; format: cell-based; details: condition A of Table 17, in µg/mL
Description: as §1, §2

[11] = test system: Staphylococcus aureus (MSSA); details: 24 h
In short: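 Broth microdilution MIC per NCCLS M7-A6 with doubling serial dilutions, in cation-adjusted Mueller-Hinton broth supplemented with 0.625 mM calcium.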

SMILES: CCCCCCCCCCCCCCC(=O)NC(CC(=O)O)C(=O)NC1C(=O)N2CCCCC2C(=O)NC(C(C)C(=O)O)C(=O)NC(CC(=O)O)C(=O)NCC(=O)NC(CC(=O)O)C(=O)NCC(=O)NC(C(C)N)C(=O)NC(C(C)C)C(=O)N2CCCC2C(=O)NC1C (stereo not drawn) [Compound 2, C15-Amphomycin]
- MIC, media condition H [1]: 4
- MIC, media condition I [2]: 4
- MIC, media condition B ([3]; condition B: CAMHB): 2
- MIC, media condition C ([3]; condition C: + 0.625 mM calcium): 1
- MIC, media condition D ([3]; condition D: + calcium and 30% bovine serum): 64
- MIC, media condition G [4]: 8
- MIC, media condition L [5]: 0.5
- MIC, media condition E ([6]; condition E: + 0.625 mM calcium): 4
- MIC, media condition F ([6]; condition F: + calcium and 30% bovine serum): 8
- MIC, media condition K [7]: 0.125
- MIC, media condition M [8]: 1
- MIC, media condition J [9]: 0.125
- MIC, media condition A [10]: 4

SMILES: CCCCCCCCCCCCCCC(=O)NC(CC(=O)O)C(=O)NC1C(=O)N2CCCCC2C(=O)NC(C(C)C(=O)O)C(=O)NC(CC(=O)O)C(=O)NCC(=O)NC(CC(=O)O)C(=O)NCC(=O)NC(C(C)NC(=O)CN(C)C)C(=O)NC(C(C)C)C(=O)N2CCCC2C(=O)NC1C (stereo not drawn) [Compound 268, C15-Amphomycin-9-(N,N-Dimethylglycine)] (Pentadecanoyl-D[ξAbu(βξ-NH2)][Pip][ξAsp(βξ-Me)]DGDG[X36]VP; lactam 2-C; configuration not given here)
- MIC [11]: 1 µg/mL

SMILES: CCCCCCCCCCCC(=O)NCC(=O)NC(CC(=O)O)C(=O)NC1C(=O)N2CCCCC2C(=O)NC(C(C)C(=O)O)C(=O)NC(CC(=O)O)C(=O)NCC(=O)NC(CC(=O)O)C(=O)NCC(=O)NC(C(C)N)C(=O)NC(C(C)C)C(=O)N2CCCC2C(=O)NC1C (stereo not drawn) [Compound 103, C12-Gly-Amphomycin] (Lauroyl-GD[ξAbu(βξ-NH2)][Pip][ξAsp(βξ-Me)]DGDG[ξAbu(3ξ-NH2)]VP; lactam 3-C; configuration not given here)
- MIC [11]: 8 to 16 µg/mL

SMILES: CCCCCCCCCCCCCCCCCC(=O)NC(CC(=O)O)C(=O)NC1C(=O)N2CCCCC2C(=O)NC(C(C)C(=O)O)C(=O)NC(CC(=O)O)C(=O)NCC(=O)NC(CC(=O)O)C(=O)NCC(=O)NC(C(C)N)C(=O)NC(C(C)C)C(=O)N2CCCC2C(=O)NC1C (stereo not drawn) [Compound 13, C18-Amphomycin]
- MIC [11]: 2 µg/mL

SMILES: CCCCCCCCCC(=O)NCC(=O)NC(CC(=O)O)C(=O)NC1C(=O)N2CCCCC2C(=O)NC(C(C)C(=O)O)C(=O)NC(CC(=O)O)C(=O)NCC(=O)NC(CC(=O)O)C(=O)NCC(=O)NC(C(C)N)C(=O)NC(C(C)C)C(=O)N2CCCC2C(=O)NC1C (stereo not drawn) [Compound 360, C10-Gly-Amphomycin] (Decanoyl-GD[ξAbu(βξ-NH2)][Pip][ξAsp(βξ-Me)]DGDG[ξAbu(3ξ-NH2)]VP; lactam 3-C; configuration not given here)
- MIC [11]: >64 µg/mL

SMILES: CC(C)C1NC(=O)C(C(C)NC(=O)CCN)NC(=O)CNC(=O)C(CC(=O)O)NC(=O)CNC(=O)C(CC(=O)O)NC(=O)C(C(C)C(=O)O)NC(=O)C2CCCCN2C(=O)C(NC(=O)C(N)CC(=O)O)C(C)NC(=O)C2CCCN2C1=O (stereo not drawn) [Compound 355, Amphomycin-9-(β-Ala)] (H-D[ξAbu(βξ-NH2)][Pip][ξAsp(βξ-Me)]DGDG[ξAbu(3ξ-NH-βAla)]VP; lactam 2-C; configuration not given here)
- MIC [11]: >64 µg/mL

SMILES: CCCCCCCCCCCCCCCC(=O)Nc1ccc(CC(=O)NC(CC(=O)O)C(=O)NC2C(=O)N3CCCCC3C(=O)NC(C(C)C(=O)O)C(=O)NC(CC(=O)O)C(=O)NCC(=O)NC(CC(=O)O)C(=O)NCC(=O)NC(C(C)N)C(=O)NC(C(C)C)C(=O)N3CCCC3C(=O)NC2C)cc1 (stereo not drawn) [Compound 281, C16-(p-Apa)-Amphomycin] (Palmitoyl-[X1]D[ξAbu(βξ-NH2)][Pip][ξAsp(βξ-Me)]DGDG[ξAbu(3ξ-NH2)]VP; lactam 3-C; configuration not given here)
- MIC [11]: 2 µg/mL

SMILES: CCCCCCCCCCCCCCC(=O)NC(CC(=O)O)C(=O)NC1C(=O)N2CCCCC2C(=O)NC(C(C)C(=O)O)C(=O)NC(CC(=O)O)C(=O)NCC(=O)NC(CC(=O)O)C(=O)NCC(=O)NC(C(C)NC(=O)[C@@H]2CCCN2C(=O)[C@@H](N)CCCCN)C(=O)NC(C(C)C)C(=O)N2CCCC2C(=O)NC1C (stereo partly drawn) [Compound 353, C15-Amphomycin-9-Pro-Lys]
- MIC [11]: >64 µg/mL

SMILES: CCCCCCCCCC(=O)NC(CC(=O)O)C(=O)NC1C(=O)N2CCCCC2C(=O)NC(C(C)C(=O)O)C(=O)NC(CC(=O)O)C(=O)NCC(=O)NC(CC(=O)O)C(=O)NCC(=O)NC(C(C)N)C(=O)NC(C(C)C)C(=O)N2CCCC2C(=O)NC1C (stereo not drawn) [Compound 6, C10-Amphomycin]
- MIC [11]: 32 to 64 µg/mL
